# In publication PMC9506420, “Biological Evaluation of 3-Azaspiro[Bicyclo[3.1.0]Hexane-2,5′-Pyrimidines] as Potential Antitumor Agents” (International Journal of Molecular Sciences, 2022):
# Where two headings read alike, the source gives them in different places.
# Columns and labels:
# Assay type in all cases: cell-based
# [1] = system: human cervical carcinoma (HeLa) cell line; experiment: MTS antiproliferative (cytotoxicity) assay, HeLa; settings: for SI (selectivity index), HeLa: Vero as reference cell line
# Protocol: (§1) The cytotoxicity of synthesized 3-azaspiro[bicyclo[3.1.0]hexane-2,5′-pyrimidines] 4 against human erythroleukemia (K562), cervical carcinoma (HeLa), and T lymphocyte (Jurkat), as well as mouse colon carcinoma (CT26) and African green monkey kidney epithelial (Vero) cell lines as reference, was evaluated in vitro by the standard MTS assay for 24 and 72 h.
# (§2) All the cell lines (human cervical carcinoma (HeLa), erythroleukemia (K-562), and T lymphocyte (Jurkat) as well as mouse colon carcinoma (CT26) and African green monkey kidney epithelial (Vero)) were obtained from the cell repository “Vertebrate cell culture collection” (supported by the Ministry of Science and Higher Education of the Russian Federation, agreement №075-15-2021-683, Institute of Cytology, Russian Academy of Sciences, Saint Petersburg, Russia). HeLa, Jurkat, and Vero cells were cultured in DMEM (HyClone, South Logan, UT, USA) supplemented with 10% (v/v) fetal bovine serum (Hyclone, GE Healthcare Life Sciences, Logan, UT, USA), and gentamicin (Sigma-Aldrich, St. Louis, MO, USA) at 37 °C in a humidified atmosphere with 5% CO2. K-562 and CT26 cells were grown at RPMI medium (Hyclone, GE Healthcare Life Sciences, Logan, UT, USA), with the same supplements and conditions.
# (§3) To evaluate the in vitro toxicity of compounds synthesized, cells were seeded into 96-well plates at a density of 5 × 10^3 cells per well. On the next day, tested compounds were added to the wells at concentrations ranging from […], followed by incubation for 1 and 3 days. Cell proliferation was determined by adding 20 μL of MTS reagent (BioVision, Milpitas, CA, USA) stock solution per well. Each plate was incubated for 2 h at 37 °C in a humidified, 5% CO2 atmosphere. The plates were then read at 495 nm using plate spectrophotometer (Multiskan GO, Thermo Fisher Scientific, Waltham, MA, USA). All samples were measured in triplicates.
# [2] = system: African green monkey kidney epithelial (Vero) cell line; experiment: MTS antiproliferative (cytotoxicity) assay, Vero (reference)
# Protocol: as §1, §2, §3
# [3] = system: human erythroleukemia (K562) cell line; experiment: MTS antiproliferative (cytotoxicity) assay, K562; settings: for SI (selectivity index), K562: Vero as reference cell line
# Protocol: as §1, §2, §3
# [4] = system: mouse colon carcinoma (CT26) cell line; experiment: MTS antiproliferative (cytotoxicity) assay, CT26; settings: for SI (selectivity index), CT26: Vero as reference cell line
# Protocol: as §1, §2, §3
# [5] = system: human T lymphocyte (Jurkat) cell line; experiment: MTS antiproliferative (cytotoxicity) assay, Jurkat; settings: for IC50: Homo sapiens, MTS
# Protocol: (§4) The cytotoxicity of synthesized 3-azaspiro[bicyclo[3.1.0]hexane-2,5′-pyrimidines] 4 against human erythroleukemia (K562), cervical carcinoma (HeLa), and T lymphocyte (Jurkat), as well as mouse colon carcinoma (CT26) and African green monkey kidney epithelial (Vero) cell lines as reference, was evaluated in vitro by the standard MTS assay for 24 and 72 h. The results are presented in Figure 1, Figure 2, Figure 3, Figure 4 and Figure 5 (data on all, tested on K562, HeLa, and CT26 cell lines’ compounds, are given at SI, Figures S1–S3). […] Replacement of the phenyl group by either the carboxymethyl or N-isopropylcarbamoyl group has led to a significant decrease in the activity of spiro-fused cycloadducts comprising azabicyclo[3.1.0]hexane and alloxane moieties.
# as §2, §3
# [6] = system: K562, Jurkat, HeLa, CT26 and Vero cell lines; experiment: MTS antiproliferative screening, all tested cell lines; settings: compared with phenyl substituted adducts
# Protocol: as §4, with “moieties. […]” for “moieties.”
# To evaluate the in vitro toxicity of compounds synthesized, cells were seeded into 96-well plates at a density of 5 × 10^3 cells per well. […] Cell proliferation was determined by adding 20 μL of MTS reagent (BioVision, Milpitas, CA, USA) stock solution per well. […] The plates were then read at 495 nm using plate spectrophotometer (Multiskan GO, Thermo Fisher Scientific, Waltham, MA, USA). All samples were measured in triplicates.
# [7] = Homo sapiens, HeLa, 24 h, read-out: IC50, HeLa, 24 h
# [8] = Homo sapiens, HeLa, 72 h, read-out: IC50, HeLa, 72 h
# [9] = Chlorocebus sabaeus, Vero, 24 h, read-out: IC50, Vero, 24 h
# [10] = Chlorocebus sabaeus, Vero, 72 h, read-out: IC50, Vero, 72 h
# [11] = Homo sapiens, K562, 24 h, read-out: IC50, K562, 24 h
# [12] = Homo sapiens, K562, 72 h, read-out: IC50, K562, 72 h
# [13] = Mus musculus, CT26, 24 h, read-out: IC50, CT26, 24 h
# [14] = Mus musculus, CT26, 72 h, read-out: IC50, CT26, 72 h
SMILES,"SI (selectivity index), HeLa ([1]; HeLa)","SI (selectivity index), K562 ([3]; K562)","SI (selectivity index), CT26 ([4]; CT26)","IC50 [1, 7] [µM]","IC50 [1, 8] [µM]","IC50 [2, 9] [µM]","IC50 [2, 10] [µM]","IC50 [3, 11] [µM]","IC50 [3, 12] [µM]","IC50 [4, 13] [µM]","IC50 [4, 14] [µM]",further results
"COc1cccc2c1C(=O)c1c(O)c3c(c(O)c1C2=O)C[C@@](O)(C(=O)CO)C[C@@H]3O[C@H]1C[C@H](N)[C@H](O)[C@H](C)O1 [Doxorubicin, reference compound]",4.8,2.0,0.5,,,,,,,,,"IC50 ([1]; Homo sapiens, HeLa, MTS, 24 h, read-out: IC50, HeLa, 24 h): 4 ± 1 µM; IC50 ([1]; Homo sapiens, HeLa, MTS, 72 h, read-out: IC50, HeLa, 72 h): 0.5 ± 0.1 µM; IC50 ([2]; Chlorocebus sabaeus, Vero, MTS, 24 h, read-out: IC50, Vero, 24 h): 13 ± 2 µM; IC50 ([2]; Chlorocebus sabaeus, Vero, MTS, 72 h, read-out: IC50, Vero, 72 h): 2.4 ± 0.4 µM; IC50 ([3]; Homo sapiens, K562, MTS, 24 h, read-out: IC50, K562, 24 h): 16 ± 3 µM; IC50 ([3]; Homo sapiens, K562, MTS, 72 h, read-out: IC50, K562, 72 h): 1.2 ± 0.3 µM; IC50 ([4]; Mus musculus, CT26, MTS, 24 h, read-out: IC50, CT26, 24 h): 19 ± 3 µM; IC50 ([4]; Mus musculus, CT26, MTS, 72 h, read-out: IC50, CT26, 72 h): 5.5 ± 0.3 µM"
O=C1NC(=O)C2(NC[C@@]3(c4ccccc4)[C@H](c4ccccc4)[C@@]23c2ccccc2)C(=O)N1 [Compound 4a],0.2,1.0,0.3,125 ± 18,70 ± 4,50 ± 14,14 ± 2,47 ± 8,14 ± 1,64 ± 7,50 ± 7,"IC50 ([5]; 24 h, read-out: IC50, Jurkat, 24 h): 24 ± 2 µM; IC50 ([5]; 72 h, read-out: IC50, Jurkat, 72 h): 19 ± 5 µM; SI (selectivity index), Jurkat ([5]; Vero as reference cell line): 0.8; relative antiproliferative activity (structure-activity comparison) [6]: less active"
"N.N.[Cl][Pt][Cl] [Cisplatin, reference compound]",0.7,0.3,0.8,,,,,,,,,"IC50 ([1]; MTS, 24 h, read-out: IC50, HeLa, 24 h): 16 ± 4 µM; IC50 ([1]; MTS, 72 h, read-out: IC50, HeLa, 72 h): 6 ± 1 µM; IC50 ([2]; MTS, 24 h, read-out: IC50, Vero, 24 h): 14 ± 1 µM; IC50 ([2]; MTS, 72 h, read-out: IC50, Vero, 72 h): 4 ± 1 µM; IC50 ([3]; MTS, 24 h, read-out: IC50, K562, 24 h): 46 ± 8 µM; IC50 ([3]; MTS, 72 h, read-out: IC50, K562, 72 h): 14 ± 2 µM; IC50 ([4]; MTS, 24 h, read-out: IC50, CT26, 24 h): 24 ± 4 µM; IC50 ([4]; MTS, 72 h, read-out: IC50, CT26, 72 h): 5 ± 1 µM"
C[C@@H]1NC2(C(=O)NC(=O)NC2=O)[C@]2(c3ccccc3)[C@@H](c3ccccc3)[C@]12c1ccccc1 [Compound 4b],1.2,2.4,1.0,34 ± 2,18 ± 2,55 ± 7,21 ± 2,25 ± 5,9 ± 2,30 ± 2,21 ± 2,
